According to US20260102407A1, “TREATMENT METHODS” (priority 2020, published 2026):

Key:
[1] = tested on: VCAM-1; assay: Immunohistochemical staining of rat retina, VCAM-1; format: in vivo; details: lasered rat retinas
Excerpt: (§1) Rat choroidal laser injury model. Male Brown Norway pigmented rats (8-14 week-old) were anesthetized by an intramuscular injection of Rompun® (xylazine)/Imalgene® (ketamine). Pupils were dilated by instillation of one drop of 0.5% tropicamide before laser burn. Six burns were created in both eyes on Day 0 by applying 170 mW of 532 nm laser light (Viridis laser, Quantel, France) on 75 μm spots around the optic nerve, between the main retinal vessel branches, for 0.1s, through the slit lamp and contact lens. Production of a bubble at the time of laser application confirmed the rupture of Bruch's membrane. […] After anaesthesia, 10% sodium fluorescein (250 μl/100 g body weight) was injected subcutaneously, and ocular fluorescence was recorded 10 min after dye injection. Fluorescein leakage was evaluated on Days 14 and 21 in the angiograms by two examiners masked to the study groups and graded for fluorescein intensity as follows: score 0: no leakage; 1: slightly stained; 2: moderately stained; 3: strongly stained.
(§2) Immunohistochemical staining of rat retina. […] IOD of positive staining (red chromogen) was assessed for CD31, VEGF-A165, pERK, FosB and VCAM-1 using Image-Pro Plus software (Cybernetics, Bethesda, MD). IOD in IPL and INL was quantified for CD31; OPL to OS for VEGF-A165; INL to ONL for pERK; GCL to OS for FosB; OLM for VCAM-1, using Image-Pro Plus. […]

[2] = tested on: pERK; assay: Immunohistochemical staining of rat retina, pERK; format: in vivo; details: lasered rat retinas
Excerpt: as §1, §2

[3] = tested on: VCAM-1; assay: Collagen antibody-induced arthritis, hind limb immunohistochemistry for VCAM-1; format: in vivo, mouse; details: CAIA mice; Day 14 hind limbs
Procedure: Collagen antibody-induced arthritis. Arthritis was induced in female Balb/c mice (6-8 week-old) as previously described with a commercially obtained cocktail of 5 monoclonal antibodies to type II collagen at 2 mg/mouse (Chondrex, Inc. Redmond, WA) followed by LPS (50 μg/mouse) with or without BT2 (3 or 30 mg/kg mouse) in DMSO vehicle was administered i.p. on Day 3. Hind footpad thickness was measured on Day 9 using digital calipers. Mice were sacrificed on Day 14 and microCT scanning of hind limbs was performed.
Immmunohistochemical staining of hind limbs for VCAM-1 and ICAM-1 and analysis. Formalin-fixed, paraffin embedded of hind limbs were sectioned (5 μm). Dako EnVision Rabbit Kit (cat. K4011, Dako) was used for immmunohistochemical staining for VCAM-1 and ICAM-1. […] Integrated optical density (IOD) of positive staining in ankle joint (tibia and talus) articular cartilage was assessed for VCAM-1 and ICAM-1 using Image-Pro Plus software (Cybernetics, Bethesda, MD, USA). Area (μm^2) of ankle joint articular cartilage was measured using Image-Pro Plus software. Total cell number and positive staining cell number in ankle joint articular cartilage were counted manually using Image-Pro Plus software. […]

**Q.** For CCOC(=O)Nc1ccc2c(c1)C(=O)N(CC)c1ccccc1O2 [BT2, (10-ethyl-11-oxo-10,11-dihydro-dibenzo[b,f][1,4]oxazepin-2-yl)-carbamic acid ethyl ester], which “inducible VCAM-1 expression in the OLM” value [1] is on record?
**A.** reduced inducible VCAM-1 expression

**Q.** And the “inducible pERK staining in the INL, OPL and ONL” value [2]?
**A.** suppressed inducible pERK staining

**Q.** What about the “VCAM-1 expression in bone” value [3] of the same compound?
**A.** inhibit VCAM-1 and ICAM-1 expression
